Assays:
[1] = biological target: Sodium-dependent dopamine transporter (Homo sapiens, UniProt Q01959); experiment: GPCRScan assay: inhibition of DAT; design: radioligand conc. used [nm] 3.6 – 16.0, parental cells stable HEK
[2] = biological target: T1, TGF-beta receptor type-1 (Homo sapiens) (UniProt P36897); experiment: TGFBR1 Invitrogen selectivity data (BI); conditions: Compound concentration 3.0 uM
T1 sequence (whole entry): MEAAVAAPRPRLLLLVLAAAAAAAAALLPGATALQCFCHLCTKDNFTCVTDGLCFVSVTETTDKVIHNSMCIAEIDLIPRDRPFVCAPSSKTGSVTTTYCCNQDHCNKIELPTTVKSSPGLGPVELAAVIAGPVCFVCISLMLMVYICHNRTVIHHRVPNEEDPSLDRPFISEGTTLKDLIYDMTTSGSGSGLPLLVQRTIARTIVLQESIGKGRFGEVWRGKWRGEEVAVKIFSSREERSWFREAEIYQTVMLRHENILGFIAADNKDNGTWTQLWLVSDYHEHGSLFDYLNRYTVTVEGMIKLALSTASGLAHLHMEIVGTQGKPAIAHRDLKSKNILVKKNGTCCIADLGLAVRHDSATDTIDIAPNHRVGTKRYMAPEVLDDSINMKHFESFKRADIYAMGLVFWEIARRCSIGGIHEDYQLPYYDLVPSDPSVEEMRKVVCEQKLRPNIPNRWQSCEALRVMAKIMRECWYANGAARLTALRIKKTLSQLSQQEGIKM

[3] = biological target: T2, Dual specificity protein kinase TTK (Homo sapiens) (UniProt P33981); experiment: TTK Invitrogen selectivity data (BI); conditions: Compound concentration 3.0 uM
T2 sequence (whole entry): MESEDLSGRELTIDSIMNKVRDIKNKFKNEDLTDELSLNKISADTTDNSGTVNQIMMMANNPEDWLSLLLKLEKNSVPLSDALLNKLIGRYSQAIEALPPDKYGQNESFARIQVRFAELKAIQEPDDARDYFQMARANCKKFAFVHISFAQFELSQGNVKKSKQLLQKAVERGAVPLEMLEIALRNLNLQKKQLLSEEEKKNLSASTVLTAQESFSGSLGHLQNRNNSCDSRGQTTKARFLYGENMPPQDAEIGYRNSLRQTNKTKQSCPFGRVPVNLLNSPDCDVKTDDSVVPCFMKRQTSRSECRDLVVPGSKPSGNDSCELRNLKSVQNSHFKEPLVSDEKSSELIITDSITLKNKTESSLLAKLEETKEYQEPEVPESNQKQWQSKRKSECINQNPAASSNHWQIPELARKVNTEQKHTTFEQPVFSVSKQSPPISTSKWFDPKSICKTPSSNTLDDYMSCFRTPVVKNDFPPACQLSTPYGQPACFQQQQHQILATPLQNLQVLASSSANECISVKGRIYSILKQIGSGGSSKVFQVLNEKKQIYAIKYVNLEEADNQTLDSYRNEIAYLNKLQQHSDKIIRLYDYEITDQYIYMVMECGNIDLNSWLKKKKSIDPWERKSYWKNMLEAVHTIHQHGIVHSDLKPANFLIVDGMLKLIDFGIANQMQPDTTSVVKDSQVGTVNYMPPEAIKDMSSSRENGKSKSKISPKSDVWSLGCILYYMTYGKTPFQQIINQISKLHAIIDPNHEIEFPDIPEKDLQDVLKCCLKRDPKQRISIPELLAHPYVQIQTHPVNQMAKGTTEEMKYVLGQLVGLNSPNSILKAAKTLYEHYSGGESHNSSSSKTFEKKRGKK

[4] = biological target: Protein kinase C zeta type (Homo sapiens) (UniProt Q05513); experiment: PRKCZ Invitrogen selectivity data (BI); conditions: Compound concentration 3.0 uM
[5] = biological target: T3, Alpha-2A adrenergic receptor (Homo sapiens) (UniProt P08913); experiment: ALPHA2A/HU Cerep selectivity data (BI); conditions: Compound concentration 20.0 uM
T3 sequence (whole entry): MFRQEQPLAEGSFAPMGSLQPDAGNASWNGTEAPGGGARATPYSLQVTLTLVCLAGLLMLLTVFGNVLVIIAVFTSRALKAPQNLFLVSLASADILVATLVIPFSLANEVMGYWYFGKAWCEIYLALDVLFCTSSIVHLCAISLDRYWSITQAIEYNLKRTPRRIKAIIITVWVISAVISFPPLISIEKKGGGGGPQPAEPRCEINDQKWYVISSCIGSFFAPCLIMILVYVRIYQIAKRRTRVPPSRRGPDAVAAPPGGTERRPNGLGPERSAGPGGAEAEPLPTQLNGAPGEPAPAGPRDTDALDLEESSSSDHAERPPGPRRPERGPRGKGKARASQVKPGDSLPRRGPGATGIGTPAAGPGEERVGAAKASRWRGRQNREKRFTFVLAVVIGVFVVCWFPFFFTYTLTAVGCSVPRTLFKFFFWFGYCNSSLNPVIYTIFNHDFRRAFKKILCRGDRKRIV

[6] = biological target: Voltage-dependent N-type calcium channel subunit alpha-1B (Rattus norvegicus) (UniProt Q02294); experiment: CA+/N/RA Eurofins-Panlabs selectivity data (BI); conditions: Compound concentration 10.0 uM
[7] = biological target: T4, Tyrosine-protein kinase receptor TYRO3 (Homo sapiens) (UniProt Q06418); experiment: TYRO3 Invitrogen selectivity data (BI); conditions: Compound concentration 3.0 uM
T4 sequence (whole entry): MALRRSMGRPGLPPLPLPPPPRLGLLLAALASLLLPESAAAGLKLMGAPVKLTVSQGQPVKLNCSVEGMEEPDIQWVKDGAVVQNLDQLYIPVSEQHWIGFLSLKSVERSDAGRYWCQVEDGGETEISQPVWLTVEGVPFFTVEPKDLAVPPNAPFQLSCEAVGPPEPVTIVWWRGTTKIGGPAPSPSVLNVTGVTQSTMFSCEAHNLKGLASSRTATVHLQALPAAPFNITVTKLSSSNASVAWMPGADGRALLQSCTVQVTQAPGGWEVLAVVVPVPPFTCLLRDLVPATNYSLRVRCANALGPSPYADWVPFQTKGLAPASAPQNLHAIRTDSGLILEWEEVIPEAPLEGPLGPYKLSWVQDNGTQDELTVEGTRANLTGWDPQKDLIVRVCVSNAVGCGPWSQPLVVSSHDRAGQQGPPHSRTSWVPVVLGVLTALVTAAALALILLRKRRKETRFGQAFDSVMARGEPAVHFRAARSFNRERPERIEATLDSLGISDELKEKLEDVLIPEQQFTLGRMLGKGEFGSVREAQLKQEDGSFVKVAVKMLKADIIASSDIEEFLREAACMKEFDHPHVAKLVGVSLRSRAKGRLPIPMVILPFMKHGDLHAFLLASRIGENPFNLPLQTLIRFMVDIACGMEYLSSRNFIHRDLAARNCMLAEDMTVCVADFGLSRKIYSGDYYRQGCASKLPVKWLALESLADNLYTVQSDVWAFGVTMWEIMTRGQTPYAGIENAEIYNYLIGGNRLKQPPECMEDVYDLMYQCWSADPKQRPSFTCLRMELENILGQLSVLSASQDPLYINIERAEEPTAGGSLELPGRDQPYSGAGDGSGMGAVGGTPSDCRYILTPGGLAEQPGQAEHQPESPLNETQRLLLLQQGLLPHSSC

[8] = biological target: RAF proto-oncogene serine/threonine-protein kinase (Homo sapiens) (UniProt P04049); experiment: RAF1 Invitrogen selectivity data (BI); conditions: Compound concentration 3.0 uM
RAF proto-oncogene serine/threonine-protein kinase (Homo sapiens), sequence (P04049 whole entry): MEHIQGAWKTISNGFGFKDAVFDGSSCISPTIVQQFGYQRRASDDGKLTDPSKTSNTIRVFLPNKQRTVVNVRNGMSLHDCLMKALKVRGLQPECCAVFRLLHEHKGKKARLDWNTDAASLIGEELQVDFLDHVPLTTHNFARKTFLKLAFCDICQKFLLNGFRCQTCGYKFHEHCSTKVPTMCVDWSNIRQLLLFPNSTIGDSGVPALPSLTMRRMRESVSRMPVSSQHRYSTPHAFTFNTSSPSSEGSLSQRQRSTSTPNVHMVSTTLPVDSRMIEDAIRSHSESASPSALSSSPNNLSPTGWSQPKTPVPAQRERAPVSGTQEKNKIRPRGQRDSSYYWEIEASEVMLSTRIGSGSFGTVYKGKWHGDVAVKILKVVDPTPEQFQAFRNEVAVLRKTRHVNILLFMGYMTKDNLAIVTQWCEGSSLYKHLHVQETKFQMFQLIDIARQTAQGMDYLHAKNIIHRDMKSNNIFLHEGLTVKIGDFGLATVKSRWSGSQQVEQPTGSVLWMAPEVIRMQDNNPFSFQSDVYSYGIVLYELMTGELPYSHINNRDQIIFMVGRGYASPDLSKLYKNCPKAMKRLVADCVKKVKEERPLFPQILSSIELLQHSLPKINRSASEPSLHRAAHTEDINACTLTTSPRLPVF

Sodium-dependent dopamine transporter, sequence (Q01959 whole entry): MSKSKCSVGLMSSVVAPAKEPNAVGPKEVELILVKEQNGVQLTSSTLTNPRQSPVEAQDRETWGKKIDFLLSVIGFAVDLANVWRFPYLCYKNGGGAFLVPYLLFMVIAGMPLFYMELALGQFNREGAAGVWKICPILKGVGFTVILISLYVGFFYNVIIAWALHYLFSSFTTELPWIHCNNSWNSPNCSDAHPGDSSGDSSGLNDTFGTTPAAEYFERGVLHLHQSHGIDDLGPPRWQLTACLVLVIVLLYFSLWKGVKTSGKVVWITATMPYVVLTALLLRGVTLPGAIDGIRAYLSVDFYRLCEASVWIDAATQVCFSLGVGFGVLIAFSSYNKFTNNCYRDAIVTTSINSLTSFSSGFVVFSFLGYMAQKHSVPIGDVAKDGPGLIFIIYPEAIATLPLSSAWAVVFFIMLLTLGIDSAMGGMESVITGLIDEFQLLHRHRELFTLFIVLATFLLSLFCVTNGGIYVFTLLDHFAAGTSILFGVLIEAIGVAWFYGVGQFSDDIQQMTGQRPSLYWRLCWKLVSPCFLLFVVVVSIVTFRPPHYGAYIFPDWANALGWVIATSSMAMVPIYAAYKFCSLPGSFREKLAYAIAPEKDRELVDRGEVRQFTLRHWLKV
Voltage-dependent N-type calcium channel subunit alpha-1B (Rattus norvegicus), sequence (Q02294 whole entry, looked up): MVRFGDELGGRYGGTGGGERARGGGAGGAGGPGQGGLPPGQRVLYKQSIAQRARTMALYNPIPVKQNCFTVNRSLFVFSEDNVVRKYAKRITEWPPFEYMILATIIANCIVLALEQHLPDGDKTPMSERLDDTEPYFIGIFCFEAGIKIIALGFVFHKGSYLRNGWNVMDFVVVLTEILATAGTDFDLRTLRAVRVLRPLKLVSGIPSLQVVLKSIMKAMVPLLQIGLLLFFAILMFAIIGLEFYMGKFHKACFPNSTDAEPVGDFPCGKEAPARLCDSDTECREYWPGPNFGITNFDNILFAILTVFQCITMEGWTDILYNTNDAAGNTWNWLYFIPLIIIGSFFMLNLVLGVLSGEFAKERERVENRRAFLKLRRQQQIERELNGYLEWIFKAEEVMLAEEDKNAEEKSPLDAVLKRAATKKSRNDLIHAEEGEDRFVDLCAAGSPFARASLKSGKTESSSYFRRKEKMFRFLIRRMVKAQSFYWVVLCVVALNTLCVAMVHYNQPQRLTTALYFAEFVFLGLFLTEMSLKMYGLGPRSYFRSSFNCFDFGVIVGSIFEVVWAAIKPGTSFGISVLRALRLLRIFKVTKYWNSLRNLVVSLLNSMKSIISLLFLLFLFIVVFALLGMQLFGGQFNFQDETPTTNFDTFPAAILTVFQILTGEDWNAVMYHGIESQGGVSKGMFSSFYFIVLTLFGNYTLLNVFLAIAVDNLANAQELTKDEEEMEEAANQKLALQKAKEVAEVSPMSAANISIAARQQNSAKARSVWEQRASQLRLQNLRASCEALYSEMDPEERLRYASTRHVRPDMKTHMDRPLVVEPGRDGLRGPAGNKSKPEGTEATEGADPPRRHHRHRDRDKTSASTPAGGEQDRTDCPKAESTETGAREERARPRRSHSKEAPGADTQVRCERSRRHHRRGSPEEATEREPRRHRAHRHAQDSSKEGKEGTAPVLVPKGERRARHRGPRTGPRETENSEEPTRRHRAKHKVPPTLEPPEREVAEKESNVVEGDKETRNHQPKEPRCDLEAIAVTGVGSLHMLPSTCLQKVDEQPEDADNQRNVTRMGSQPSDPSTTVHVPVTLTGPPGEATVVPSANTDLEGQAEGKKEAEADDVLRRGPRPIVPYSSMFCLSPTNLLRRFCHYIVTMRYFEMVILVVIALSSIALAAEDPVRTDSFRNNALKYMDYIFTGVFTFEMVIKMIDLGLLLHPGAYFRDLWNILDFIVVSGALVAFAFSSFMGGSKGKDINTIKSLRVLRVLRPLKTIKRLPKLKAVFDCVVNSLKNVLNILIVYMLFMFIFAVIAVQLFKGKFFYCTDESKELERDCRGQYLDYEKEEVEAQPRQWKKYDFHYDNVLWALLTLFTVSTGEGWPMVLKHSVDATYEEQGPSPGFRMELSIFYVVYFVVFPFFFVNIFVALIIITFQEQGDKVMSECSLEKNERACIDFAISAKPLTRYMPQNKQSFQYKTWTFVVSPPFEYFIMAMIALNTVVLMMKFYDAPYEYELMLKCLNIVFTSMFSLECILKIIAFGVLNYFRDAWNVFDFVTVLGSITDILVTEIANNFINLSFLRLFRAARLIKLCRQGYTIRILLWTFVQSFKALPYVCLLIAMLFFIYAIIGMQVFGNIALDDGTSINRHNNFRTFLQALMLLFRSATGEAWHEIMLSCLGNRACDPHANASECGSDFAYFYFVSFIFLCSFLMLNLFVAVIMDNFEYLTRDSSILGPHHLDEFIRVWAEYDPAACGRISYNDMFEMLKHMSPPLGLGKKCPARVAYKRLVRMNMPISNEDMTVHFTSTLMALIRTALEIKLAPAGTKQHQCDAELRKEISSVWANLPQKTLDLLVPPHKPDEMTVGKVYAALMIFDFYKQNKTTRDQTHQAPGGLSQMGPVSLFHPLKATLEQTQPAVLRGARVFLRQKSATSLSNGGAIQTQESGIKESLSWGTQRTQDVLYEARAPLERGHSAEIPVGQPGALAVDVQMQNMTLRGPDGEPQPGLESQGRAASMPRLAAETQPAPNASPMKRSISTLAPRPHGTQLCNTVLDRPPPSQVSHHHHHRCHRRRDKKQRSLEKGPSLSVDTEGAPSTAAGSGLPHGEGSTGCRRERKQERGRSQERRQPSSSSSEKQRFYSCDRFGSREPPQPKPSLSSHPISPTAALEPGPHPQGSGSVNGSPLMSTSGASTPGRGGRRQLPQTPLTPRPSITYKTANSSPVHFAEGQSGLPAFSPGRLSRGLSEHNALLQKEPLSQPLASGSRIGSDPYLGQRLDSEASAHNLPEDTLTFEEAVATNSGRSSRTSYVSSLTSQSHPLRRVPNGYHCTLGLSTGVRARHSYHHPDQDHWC
Protein kinase C zeta type (Homo sapiens), sequence (Q05513 whole entry): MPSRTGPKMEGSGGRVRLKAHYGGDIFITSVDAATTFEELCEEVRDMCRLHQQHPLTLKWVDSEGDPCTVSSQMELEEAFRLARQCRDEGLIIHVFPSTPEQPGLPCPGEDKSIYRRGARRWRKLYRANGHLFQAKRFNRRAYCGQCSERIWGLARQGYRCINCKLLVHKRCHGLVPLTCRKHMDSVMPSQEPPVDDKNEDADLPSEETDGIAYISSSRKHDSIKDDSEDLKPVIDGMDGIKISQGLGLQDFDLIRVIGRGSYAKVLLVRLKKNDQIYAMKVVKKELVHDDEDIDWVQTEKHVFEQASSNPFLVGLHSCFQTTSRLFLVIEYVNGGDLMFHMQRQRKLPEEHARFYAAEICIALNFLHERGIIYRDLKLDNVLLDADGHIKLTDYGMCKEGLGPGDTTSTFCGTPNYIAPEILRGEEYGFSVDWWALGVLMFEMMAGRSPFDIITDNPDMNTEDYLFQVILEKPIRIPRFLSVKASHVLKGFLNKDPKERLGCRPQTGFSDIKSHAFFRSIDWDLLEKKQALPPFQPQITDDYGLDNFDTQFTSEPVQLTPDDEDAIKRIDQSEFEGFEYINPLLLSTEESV

Row | Compound | Ki ([1]; read-out: Ki) [µM] | Ki ([1]; read-out: pKi (converted)) [µM] | residual activity [2] [%] | residual activity [3] [%] | residual activity [4] [%] | residual activity [5] [%] | residual activity [6] [%] | residual activity [7] [%] | residual activity [8] [%]
1 | CN(C)C(=O)Cn1cc(-c2nc(C3(c4ccc(-c5cnc(N)nc5)cc4)CC3)no2)cn1 [BI 0153] | 0.855 | 0.794 |  |  |  |  |  |  | 
2 | CN(C)C(=O)Cn1cc(-c2nc([C@@](C)(c3ccc(-c4cnc(N)nc4)cc3)C3CC3)no2)cn1 [BI 665915] |  |  | 96 | 98 | 100 | 101 | 95 | 96.5 | 97
